Assay results from ChEMBL document CHEMBL1201862, “PubChem BioAssay data set” (2004).
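A five-concentration, 48-hour dose response in 96-well plates underlies each endpoint, interpolated linearly between surrounding concentrations. GI50 = concentration required for 50% inhibition of growth.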 Active and inactive are the calls of the source. Rule as the data show it: active = GI50 up to about 1.1 µM and inactive = higher.

Key:
Experiment in all cases: NCI anticancer screen, dose series, 48 h
786-0 = tested on: 786-0
A498 = tested on: A498
ACHN = tested on: ACHN
DU-145 = tested on: DU-145
HL-60 = tested on: HL-60
IGROV-1 = tested on: IGROV-1
M14 = tested on: M14
MDA-MB-231 = tested on: MDA-MB-231
MDA-N = tested on: MDA-N
NCI-H460 = tested on: NCI-H460
OVCAR-3 = tested on: OVCAR-3
RPMI-8226 = tested on: RPMI-8226
HOP-62 = tested on: HOP-62
Hs-578T = tested on: Hs-578T
SF-268 = tested on: SF-268

SMILES | GI50 (786-0) | GI50 (A498) | GI50 (ACHN) | GI50 (DU-145) | GI50 (HL-60) | GI50 (IGROV-1) | GI50 (M14) | GI50 (MDA-MB-231) | GI50 (MDA-N) | GI50 (NCI-H460) | GI50 (OVCAR-3) | GI50 (RPMI-8226) | GI50 (HOP-62) | GI50 (Hs-578T) | GI50 (SF-268)
COC(=O)CC1(CNC(=O)OCc2ccccc2)OCCO1 | > 100 µM (inactive) | > 100 µM (inactive) | > 100 µM (inactive) | > 100 µM (inactive) | > 100 µM (inactive) | > 100 µM (inactive) | > 100 µM (inactive) | > 100 µM (inactive) | > 100 µM (inactive) | > 100 µM (inactive) | > 100 µM (inactive) | > 100 µM (inactive) | – | – | –
COC(=O)C1=C(C(=O)OC)C(N(C)C)C(C(=O)OC)=C(C(=O)OC)S1 | > 100 µM (inactive) | > 100 µM (inactive) | > 100 µM (inactive) | > 100 µM (inactive) | – | – | > 100 µM (inactive) | > 100 µM (inactive) | > 100 µM (inactive) | 57.1 µM (inactive) | > 100 µM (inactive) | > 100 µM (inactive) | > 100 µM (inactive) | > 100 µM (inactive) | > 100 µM (inactive)
CCN(CC)c1ccc2c(c1)Oc1ccc(N(C(C)=O)c3ccccc3)cc1C21OC(=O)c2ccccc21 (configuration not stated) | > 100 µM (inactive) | > 100 µM (inactive) | > 100 µM (inactive) | > 100 µM (inactive) | 8.53 µM (inactive) | > 100 µM (inactive) | 40.6 µM (inactive) | > 100 µM (inactive) | 32.6 µM (inactive) | 65.9 µM (inactive) | > 100 µM (inactive) | 6.76 µM (inactive) | > 100 µM (inactive) | 58.3 µM (inactive) | > 100 µM (inactive)
COC(=O)c1c(-c2ccccc2)c2sc3ccccc3n2c1N | 29.3 µM (inactive) | 30.5 µM (inactive) | 50 µM (inactive) | 57.5 µM (inactive) | – | 58.6 µM (inactive) | 76.6 µM (inactive) | 87.1 µM (inactive) | 50.4 µM (inactive) | 40.2 µM (inactive) | 48.9 µM (inactive) | > 100 µM (inactive) | 31.5 µM (inactive) | – | 44 µM (inactive)
Cc1ccc(-c2c(C#N)c(-c3ccc([N+](=O)[O-])cc3)c(C#N)c(=O)n2NS(=O)(=O)c2ccccc2)cc1 | 45.3 µM (inactive) | 57.7 µM (inactive) | 39.2 µM (inactive) | – | – | 30.9 µM (inactive) | 32.5 µM (inactive) | 38.7 µM (inactive) | 84.3 µM (inactive) | 32.3 µM (inactive) | – | – | 30.1 µM (inactive) | 0.589 µM (active) | 49 µM (inactive)
Cc1sc(N)c(S(=O)(=O)c2ccccc2)c1C | > 100 µM (inactive) | > 100 µM (inactive) | > 100 µM (inactive) | > 100 µM (inactive) | > 100 µM (inactive) | > 100 µM (inactive) | > 100 µM (inactive) | > 100 µM (inactive) | – | > 100 µM (inactive) | 80.5 µM (inactive) | > 100 µM (inactive) | – | > 100 µM (inactive) | > 100 µM (inactive)
COC(=O)c1ccc2c(c1)CCN2C(=O)c1cc2c(cc1Br)OCO2 | 0.74 µM (active) | 1.05 µM (active) | 5.19 µM (inactive) | 1.71 µM (inactive) | 0.198 µM (active) | 0.614 µM (active) | 0.276 µM (active) | 1.65 µM (inactive) | 0.0834 µM (active) | 5.81 µM (inactive) | 0.313 µM (active) | 0.668 µM (active) | 3.87 µM (inactive) | 0.658 µM (active) | 1.8 µM (inactive)
CN(C)CCCCN1CCc2c(n(C)c3ccccc23)C1=O | 33.5 µM (inactive) | – | 72.1 µM (inactive) | – | 51.4 µM (inactive) | 57.9 µM (inactive) | 18.4 µM (inactive) | 29.5 µM (inactive) | 19.3 µM (inactive) | – | > 81.3 µM (inactive) | – | 38.7 µM (inactive) | 33 µM (inactive) | 31.3 µM (inactive)
COc1cc(Nc2nc3ccc(C(F)(F)F)cc3nc2C(=O)O)cc(OC)c1OC | 27.8 µM (inactive) | – | 27.4 µM (inactive) | 28.5 µM (inactive) | 31.3 µM (inactive) | 25.6 µM (inactive) | 30 µM (inactive) | 19.2 µM (inactive) | 19.3 µM (inactive) | 21.2 µM (inactive) | 32.1 µM (inactive) | 21.5 µM (inactive) | 18.2 µM (inactive) | 16.9 µM (inactive) | 18.8 µM (inactive)
COc1cc(N/N=C/C#N)cc(OC)c1OC | – | > 10 µM (inactive) | 4.86 µM (inactive) | > 10 µM (inactive) | 2.12 µM (inactive) | > 10 µM (inactive) | > 10 µM (inactive) | > 10 µM (inactive) | > 10 µM (inactive) | > 10 µM (inactive) | > 10 µM (inactive) | 2.16 µM (inactive) | > 10 µM (inactive) | > 10 µM (inactive) | > 10 µM (inactive)
COc1ccc2c(c1)/C(=C/CCN(C)C)c1ccccc1S2 | – | > 100 µM (inactive) | > 100 µM (inactive) | > 100 µM (inactive) | 48.5 µM (inactive) | – | 73.8 µM (inactive) | 59 µM (inactive) | 43.3 µM (inactive) | > 100 µM (inactive) | > 100 µM (inactive) | – | – | 33.4 µM (inactive) | 92.9 µM (inactive)
O=C(O)c1nc2ccc(C(F)(F)F)cc2[nH]c1=O | – | > 100 µM (inactive) | > 100 µM (inactive) | > 100 µM (inactive) | > 100 µM (inactive) | > 100 µM (inactive) | > 100 µM (inactive) | > 100 µM (inactive) | > 100 µM (inactive) | > 100 µM (inactive) | > 100 µM (inactive) | > 100 µM (inactive) | > 100 µM (inactive) | > 100 µM (inactive) | > 100 µM (inactive)
CCCC(=O)Nc1cc(/C=C/C(=O)N2CC(CCl)c3c2cc(OCc2ccccc2)c2[nH]cc(C)c32)n(C)c1 (configuration not stated) | 0.0365 µM (active) | 0.0953 µM (active) | 0.013 µM (active) | 0.0194 µM (active) | 0.0259 µM (active) | 0.0211 µM (active) | 0.142 µM (active) | 0.247 µM (active) | 0.249 µM (active) | 0.0147 µM (active) | 0.127 µM (active) | 0.0745 µM (active) | 0.0491 µM (active) | 0.14 µM (active) | 0.0226 µM (active)
N#Cc1cc2c(cc1C#N)/C(=N\c1cccc(N)n1)N/C2=N\c1cccc(N)n1 | 12.9 µM (inactive) | > 10 µM (inactive) | 20.4 µM (inactive) | > 100 µM (inactive) | 19.1 µM (inactive) | 20.7 µM (inactive) | 17.5 µM (inactive) | 15.2 µM (inactive) | 20.3 µM (inactive) | 22.4 µM (inactive) | 29.5 µM (inactive) | 32.7 µM (inactive) | 24.3 µM (inactive) | 18.5 µM (inactive) | 15.1 µM (inactive)
CCOC(=O)/C(=N/Nc1ccc(Cl)cc1)N1C(=S)N(C)N=C(C)C=C1S | – | – | > 100 µM (inactive) | > 100 µM (inactive) | > 100 µM (inactive) | > 100 µM (inactive) | > 100 µM (inactive) | 29 µM (inactive) | – | 26.7 µM (inactive) | 81.3 µM (inactive) | > 100 µM (inactive) | – | 37.1 µM (inactive) | 29.9 µM (inactive)
